Measured values: patent publication US12357607B2, “Compositions and methods for intravenous administration of 2-bromo-1-(3,3-dinitroazetidin-1-yl)ethanone” (EpicentRx, Inc., priority 2016, dated 2025)

Assay: Phase 1 dose-escalation study: intravenous aqueous solution of ABDNAZ; safety, tolerability, adverse events
Assay type: in vivo, human
Method: An aqueous solution of ABDNAZ was intravenously administered to twenty-five human patients as part of a Phase I clinical study. The aqueous solution contained ABDNAZ (2 mg/mL), polyethylene glycol having a number average molecular weight of 400 g/mol (6% w/w), dimethylacetamide (3% w/w), and water for injection. Patients were administered a volume of the aqueous solution of ABDNAZ sufficient to deliver a dose of ABDNAZ in the amount of 10 mg/m^2, 16.7 mg/m^2, 24.6 mg/m^2, 33 mg/m^2, 55 mg/m^2, or 83 mg/m^2. Pain at the injection site due to administration of the aqueous solution of ABDNAZ was experienced by 84% of patients. […] Thereafter, peripheral intravenous delivery in the antecubital or forearm area was used and a longer duration of time was used to perform the infusion (e.g., ranging from 2 hours to 8 hours, while administering at a rate of 3.5 mL/hour that could be adjusted up or down in 0.5 mL/hour increments based on patients' ability to tolerate the infusion).
In this open-label, human, dose-escalation phase 1 study, a 3+3 dose-escalation design was used to assess safety, tolerability, and pharmacokinetics of ABDNAZ. Patients were enrolled from the University of California-San Diego Moores Cancer Center, La Jolla, CA, USA, and the Sarah Cannon Research Institute, Nashville, TN, USA. […] Previous antineoplastic therapies had to have been discontinued at least 6 weeks before intervention start, and patients could show no residual side-effects of previous therapies. Patients were required to practice effective contraception while receiving ABDNAZ. All patients had evaluable disease. Key exclusion criteria included hypoalbuminaemia (albumin <30 g/L), active brain metastases (although patients with stable brain metastases were eligible), pregnancy or breast feeding, any other clinically significant illness or psychiatric disorder that could affect compliance or endpoint assessments, and concurrent use of any other investigational drugs.
Screening assessments were done at the clinical site less than 16 days before treatment initiation and included an electrocardiogram, urinalysis, Modified Borg Dyspnea Assessment, pulse oximetry, and radiographic tumour measurement. A medical history, physical examination, pregnancy test, performance status, complete blood count, a comprehensive serum chemistry, and urinalysis were done within 16 days of the first dosing.
The protocol was reviewed and approved by the investigational review boards at the Moores Cancer Center and the Sarah Cannon Research Institute. All procedures were performed in accordance with the principles established by the Helsinki Declaration. Patients gave written informed consent for all clinical and research aspects of the study before enrolment, which was done according to national and institutional guidelines.
An aqueous solution of ABDNAZ was intravenously administered to patients. The aqueous solution contained ABDNAZ (2 mg/mL), polyethylene glycol having a number average molecular weight of 400 g/mol (6% w/w), dimethylacetamide (3% w/w), and water for injection. Patients were administered a volume of the aqueous solution of ABDNAZ sufficient to deliver a dose of ABDNAZ in the amount of 10 mg/m^2, 16.7 mg/m^2, 24.6 mg/m^2, 33 mg/m^2, 55 mg/m^2, or 83 mg/m^2. Three patients were given a starting dose of 10 mg/m^2 of ABDNAZ before dose escalation (to 16.7 mg/m^2, 24.6 mg/m^2, 33 mg/m^2, 55 mg/m and 83 mg/m^2), with at least three patients per dose cohort, allowing a 2-week observation period before dose escalation. […] Thereafter, peripheral intravenous delivery in the antecubital or forearm area was used and a longer duration of time was used to perform the infusion (e.g., ranging from 2 hours to 8 hours, while administering at a rate of 3.5 mL/hour that could be adjusted up or down in 0.5 mL/hour increments based on patients' ability to tolerate the infusion). […]

[1] = 10 mg/m^2 dose (n = 6), number of patients
[2] = 16.7 mg/m^2 dose (n = 3), number of patients
[3] = 24.6 mg/m^2 dose (n = 3), number of patients
[4] = 33 mg/m^2 dose (n = 4), number of patients
[5] = 55 mg/m^2 dose (n = 3), number of patients
[6] = 83 mg/m^2 dose (n = 6), number of patients
[7] = twenty-five patients, all dose cohorts
[8] = twenty-five patients, all dose cohorts 10-83 mg/m^2

In the case of `O=C(CBr)N1CC([N+](=O)[O-])([N+](=O)[O-])C1` [ABDNAZ, 2-bromo-1-(3,3-dinitroazetidin-1-yl)ethanone], the “Dyspnoea or wheezing, Grade 1-2, share of patients” value (“Dyspnoea or wheezing … of patients” below) (10 mg/m^2 dose (n = 6)) is reported as “(17%)”, the “Infusion-site pain, Grade 1-2, share of patients” value (10 mg/m^2 dose (n = 6)) is reported as “(67%)” and the “Arm swelling or oedema, Grade 1-2” value [1] is reported as 0. The “Arm swelling or oedema, Grade 3” value [1] was 0, the “Dyspnoea or wheezing, Grade 1-2” value [1] was 1 and the “Dyspnoea or wheezing, Grade 3” value [1] was 0. For the same compound, the “Infusion-site pain, Grade 1-2” value [1] was 4, the “Infusion-site pain, Grade 3” value [1] was 0 and the “Mouth tingling or burning, Grade 1-2” value [1] was 0. For the same compound, the “Mouth tingling or burning, Grade 3” value [1] was 0, the “Vein hardening, Grade 1-2” value [1] was 0 and the “Vein hardening, Grade 3” value [1] was 0. For the same compound, the “Arm swelling or oedema, Grade 1-2, share of patients” value (16.7 mg/m^2 dose (n = 3)) was “(33%)”, the “Infusion-site pain, Grade 1-2, share of patients” value (16.7 mg/m^2 dose (n = 3)) was “(100%)” and the “Arm swelling or oedema, Grade 1-2” value [2] was 1. For the same compound, the “Arm swelling or oedema, Grade 3” value [2] was 0, the “Dyspnoea or wheezing, Grade 1-2” value [2] was 0 and the “Dyspnoea or wheezing, Grade 3” value [2] was 0. The “Infusion-site pain, Grade 1-2” value [2] was 3, the “Infusion-site pain, Grade 3” value [2] was 0 and the “Mouth tingling or burning, Grade 1-2” value [2] was 0. For the same compound, the “Mouth tingling or burning, Grade 3” value [2] was 0, the “Vein hardening, Grade 1-2” value [2] was 0 and the “Vein hardening, Grade 3” value [2] was 0. The “Infusion-site pain, Grade 1-2, share of patients” value (24.6 mg/m^2 dose (n = 3)) was “(33%)”, the “Arm swelling or oedema, Grade 1-2” value [3] was 0 and the “Arm swelling or oedema, Grade 3” value [3] was 0. The “Dyspnoea or wheezing, Grade 1-2” value [3] was 0, the “Dyspnoea or wheezing, Grade 3” value [3] was 0 and the “Infusion-site pain, Grade 1-2” value [3] was 1. For the same compound, the “Infusion-site pain, Grade 3” value [3] was 0, the “Mouth tingling or burning, Grade 1-2” value [3] was 0 and the “Mouth tingling or burning, Grade 3” value [3] was 0. For the same compound, the “Vein hardening, Grade 1-2” value [3] was 0, the “Vein hardening, Grade 3” value [3] was 0 and the “Arm swelling or oedema, Grade 2, share of patients” value (33 mg/m^2 dose (n = 4)) was “(25%)”. The “Infusion-site pain, Grade 2, share of patients” value (33 mg/m^2 dose (n = 4)) was “(75%)”, the “Infusion-site pain, Grade 3, share of patients” value (33 mg/m^2 dose (n = 4)) was “(25%)” and the “Vein hardening, Grade 2, share of patients” value (33 mg/m^2 dose (n = 4)) was “(25%)”. For the same compound, the “Arm swelling or oedema, Grade 2” value [4] was 1, the “Arm swelling or oedema, Grade 3” value [4] was 0 and the “Dyspnoea or wheezing, Grade 2” value [4] was 0. The “Dyspnoea or wheezing, Grade 3” value [4] was 0, the “Infusion-site pain, Grade 2” value [4] was 3 and the “Infusion-site pain, Grade 3” value [4] was 1. For the same compound, the “Mouth tingling or burning, Grade 2” value [4] was 0, the “Mouth tingling or burning, Grade 3” value [4] was 0 and the “Vein hardening, Grade 2” value [4] was 1. For the same compound, the “Vein hardening, Grade 3” value [4] was 0, the “Arm swelling or oedema, Grade 1-2, share of patients” value (55 mg/m^2 dose (n = 3)) was “(67%)” and the “Dyspnoea or wheezing … of patients” value (55 mg/m^2 dose (n = 3)) was “(33%)”. The “Infusion-site pain, Grade 1-2, share of patients” value (55 mg/m^2 dose (n = 3)) was “(100%)”, the “Mouth tingling or burning, Grade 1-2, share of patients” value (55 mg/m^2 dose (n = 3)) was “(67%)” and the “Vein hardening, Grade 1-2, share of patients” value (55 mg/m^2 dose (n = 3)) was “(33%)”. For the same compound, the “Arm swelling or oedema, Grade 1-2” value [5] was 2, the “Arm swelling or oedema, Grade 3” value [5] was 0 and the “Dyspnoea or wheezing, Grade 1-2” value [5] was 1. The “Dyspnoea or wheezing, Grade 3” value [5] was 0, the “Infusion-site pain, Grade 1-2” value [5] was 3 and the “Infusion-site pain, Grade 3” value [5] was 0. The “Mouth tingling or burning, Grade 1-2” value [5] was 2, the “Mouth tingling or burning, Grade 3” value [5] was 0 and the “Vein hardening, Grade 1-2” value [5] was 1. For the same compound, the “Vein hardening, Grade 3” value [5] was 0, the “Arm swelling or oedema, Grade 1-2, share of patients” value (83 mg/m^2 dose (n = 6)) was “(67%)” and the “Dyspnoea or wheezing … of patients” value (83 mg/m^2 dose (n = 6)) was “(50%)”. The “Infusion-site pain, Grade 1-2, share of patients” value (83 mg/m^2 dose (n = 6)) was “(100%)”, the “Mouth tingling or burning, Grade 1-2, share of patients” value (83 mg/m^2 dose (n = 6)) was “(33%)” and the “Vein hardening, Grade 1-2, share of patients” value (83 mg/m^2 dose (n = 6)) was “(83%)”. The “Arm swelling or oedema, Grade 1-2” value [6] was 4, the “Arm swelling or oedema, Grade 3” value [6] was 0 and the “Dyspnoea or wheezing, Grade 1-2” value [6] was 3. For the same compound, the “Dyspnoea or wheezing, Grade 3” value [6] was 0, the “Infusion-site pain, Grade 1-2” value [6] was 6 and the “Infusion-site pain, Grade 3” value [6] was 0. For the same compound, the “Mouth tingling or burning, Grade 1-2” value [6] was 2, the “Mouth tingling or burning, Grade 3” value [6] was 0 and the “Vein hardening, Grade 1-2” value [6] was 5. For the same compound, the “Vein hardening, Grade 3” value [6] was 0, the “Pain at the injection site, grade” value (all dose cohorts 10-83 mg/m^2) was “mostly grade 1 and grade 2” and the “Patients needing dose reduction to 33 mg/m^2 because of localized infusion pain” value (highest dose cohort (83 mg/m^2)) was “Three”. For the same compound, the Maximally feasible dose (limited by time constraints related to management of infusion pain) was 83 mg/m^2, the “Patients needing dose reduction to 33 mg/m^2 because of localized infusion pain” value (penultimate dose cohort (55 mg/m^2)) was “one” and the “Arm swelling or oedema, number of patients” value [7] was “eight”. The “Arm swelling or oedema, share of patients” value [7] was 32%, the “Vein hardening, number of patients” value [7] was “seven” and the “Vein hardening, share of patients” value [7] was 28%. The “Pain at the injection site, number of patients” value [8] was 21 patients and the “Pain at the injection site, share of patients” value [8] was 84%.
